Patent US20110046056A1, “APOA-1 PEPTIDE MIMETICS” (priority 2007, published 2011)
*1 amine or outer side, *2 acyl side, *3 side chain or, on linkers, in order; H or OH if unused. Where a SMILES comes first, the peptide text is derived from it. [ ]: non-standard residue; d: D form. dNle(6-ylidene) = O=C([C@@H](CCCC=[*:3])N[*:1])[*:2]; dGly(6-heptenyl) = C=CCCCCC[C@@H](N)C(=O)O; dNle(6-vinyl) = C=CCCCC[C@@H](N)C(=O)O; Gla = N[C@@H](CC(C(=O)O)C(=O)O)C(=O)O; Gly(octyl) = CCCCCCCC[C@H](N)C(=O)O; X6 = CCCCCCC[C@H](N[*:1])C(=O)[*:2]; Aib = CC(C)(N)C(=O)O

Target: T1, ABCA1 cholesterol transporter protein (Mus musculus, UniProt P41233)
T1 construct: endogenous in cells
T1 sequence (P41233 whole entry): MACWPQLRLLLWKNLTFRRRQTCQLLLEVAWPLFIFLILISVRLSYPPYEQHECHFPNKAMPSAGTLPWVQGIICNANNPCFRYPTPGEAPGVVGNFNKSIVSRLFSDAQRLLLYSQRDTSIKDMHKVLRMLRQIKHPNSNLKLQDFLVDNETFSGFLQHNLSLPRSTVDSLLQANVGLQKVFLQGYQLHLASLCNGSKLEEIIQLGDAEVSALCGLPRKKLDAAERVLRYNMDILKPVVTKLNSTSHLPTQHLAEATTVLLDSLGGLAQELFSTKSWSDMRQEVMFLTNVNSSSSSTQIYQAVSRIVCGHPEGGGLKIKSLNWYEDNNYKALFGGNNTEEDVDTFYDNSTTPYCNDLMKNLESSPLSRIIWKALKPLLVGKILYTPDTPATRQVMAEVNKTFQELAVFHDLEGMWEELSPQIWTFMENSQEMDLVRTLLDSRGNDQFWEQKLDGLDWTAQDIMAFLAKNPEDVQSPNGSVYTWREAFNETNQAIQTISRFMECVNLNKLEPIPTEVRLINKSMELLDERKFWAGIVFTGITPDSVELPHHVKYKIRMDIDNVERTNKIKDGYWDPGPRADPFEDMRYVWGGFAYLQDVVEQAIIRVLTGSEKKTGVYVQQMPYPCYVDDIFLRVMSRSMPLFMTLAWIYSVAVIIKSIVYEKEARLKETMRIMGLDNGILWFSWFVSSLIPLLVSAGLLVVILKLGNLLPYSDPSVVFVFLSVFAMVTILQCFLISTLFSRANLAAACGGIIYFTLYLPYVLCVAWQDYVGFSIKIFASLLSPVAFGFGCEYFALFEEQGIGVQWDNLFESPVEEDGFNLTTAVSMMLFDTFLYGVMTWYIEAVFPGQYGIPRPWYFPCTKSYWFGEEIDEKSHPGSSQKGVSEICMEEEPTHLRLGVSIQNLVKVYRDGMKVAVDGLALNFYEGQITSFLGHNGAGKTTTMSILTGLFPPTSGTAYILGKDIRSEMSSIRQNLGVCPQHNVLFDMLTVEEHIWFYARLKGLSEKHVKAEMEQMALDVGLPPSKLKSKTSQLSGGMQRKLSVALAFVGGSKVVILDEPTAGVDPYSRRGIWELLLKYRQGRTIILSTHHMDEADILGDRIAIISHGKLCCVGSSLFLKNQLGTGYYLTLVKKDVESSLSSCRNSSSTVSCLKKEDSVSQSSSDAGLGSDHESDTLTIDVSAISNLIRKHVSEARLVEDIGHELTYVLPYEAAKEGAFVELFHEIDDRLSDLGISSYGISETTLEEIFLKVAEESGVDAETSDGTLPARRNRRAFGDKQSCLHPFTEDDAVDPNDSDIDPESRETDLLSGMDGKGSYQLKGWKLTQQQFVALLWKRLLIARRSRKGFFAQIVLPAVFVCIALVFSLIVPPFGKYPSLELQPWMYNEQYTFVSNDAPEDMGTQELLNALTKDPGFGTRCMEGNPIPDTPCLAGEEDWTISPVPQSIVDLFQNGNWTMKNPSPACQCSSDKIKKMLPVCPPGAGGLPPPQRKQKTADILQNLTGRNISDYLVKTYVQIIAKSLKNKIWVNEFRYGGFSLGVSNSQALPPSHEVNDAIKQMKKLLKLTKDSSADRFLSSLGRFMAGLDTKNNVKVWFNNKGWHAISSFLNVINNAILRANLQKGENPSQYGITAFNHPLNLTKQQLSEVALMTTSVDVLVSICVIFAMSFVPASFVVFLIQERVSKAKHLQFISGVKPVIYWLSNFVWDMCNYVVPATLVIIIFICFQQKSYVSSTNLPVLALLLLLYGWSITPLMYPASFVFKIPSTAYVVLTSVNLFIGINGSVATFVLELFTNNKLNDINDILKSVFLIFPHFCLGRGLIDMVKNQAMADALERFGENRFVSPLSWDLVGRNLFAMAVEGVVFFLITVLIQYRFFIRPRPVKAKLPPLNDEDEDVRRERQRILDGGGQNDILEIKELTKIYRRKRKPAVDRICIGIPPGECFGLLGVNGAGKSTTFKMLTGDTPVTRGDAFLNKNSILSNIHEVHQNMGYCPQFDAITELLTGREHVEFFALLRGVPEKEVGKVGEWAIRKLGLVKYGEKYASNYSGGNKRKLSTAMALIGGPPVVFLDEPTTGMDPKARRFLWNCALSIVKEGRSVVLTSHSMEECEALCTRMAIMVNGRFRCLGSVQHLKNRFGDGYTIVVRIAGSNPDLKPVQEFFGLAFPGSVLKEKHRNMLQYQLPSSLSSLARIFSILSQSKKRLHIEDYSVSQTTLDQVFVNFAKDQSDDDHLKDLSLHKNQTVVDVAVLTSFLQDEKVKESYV
Experiment: ABCA1-dependent cholesterol efflux from RAW mouse macrophage cells (in vitro RCT assay)
Format: cell-based
Conditions: read-out: ABCA1-DEPENDENT CHOLESTEROL EFFLUX EC50
Text: Peptides of the present invention were designed based on amphipathic properties and their abilities to solubilize phospholipids and promote cholesterol efflux. The most direct functional measurement of efficacy for the ApoA-1 peptide mimetic is its capacity to improve the efflux of cholesterol from the cell. The RAW and J774 cell lines are reliable mouse macrophage cell lines frequently used in the art for this purpose. […] The RAW cell line is preferred and recited in the description below.
In the present assay, the RAW cells are plated at 1.5×10^5 cells/200 μl/well/48-well plate in DMEM complete medium (with 10% FBS from INVITROGEN and 1% penicillin-streptomycin-glutamine from GIBCO) and ^3H-cholesterol at 5 μCi/ml. After 24 hours incubation in a moist 37° C. atmosphere with 5% CO2, the spent medium is removed, the cells are washed once with serum-free DMEM (0.1% fatty acid free bovine serum albumin replaces the FBS), and fresh serum-free medium (200 μl) is added to each well. After overnight incubation in the serum-free medium to allow the cellular cholesterol pools to equilibrate, the spent medium is removed, and fresh serum-free medium is added with/without CPT-cAMP (150 μM final). Eight-point serial titrations of the peptide/s being tested are added at this time (duplicate titrations in plain medium without cAMP and duplicate titrations in medium containing cAMP).
After 24 hours incubation in the various conditions, the medium is harvested from each well and 50 μl aliquots are counted. The cells are then lysed by adding 500 μl of HEPES/Triton lysis buffer to each well. The lysis is facilitated by freezing and thawing once. After thawing, the lysates are mixed well and 50 μl aliquots are counted.
The percent efflux of each peptide in each medium condition (±cAMP) is calculated by dividing the total counts in the medium by the sum of the total counts in the medium and lysate. The percent efflux seen with plain medium is subtracted from the percent efflux seen with the cAMP-stimulated efflux to yield the reported ABCA1-stimulated values. EC50 values are determined using PRISM software (Table 2).

Compound `C=CCCC[C@@H](NC(=O)[C@H](CCC(=O)O)NC(=O)[C@H](CC(N)=O)NC(=O)[C@H](CC(C)C)NC(=O)[C@@H](CCCC=C)NC(=O)[C@H](CCC(=O)O)NC(=O)[C@H](CCCNC(=N)N)NC(=O)[C@H](Cc1ccccc1)NC(=O)[C@H](CCC(=O)O)NC(=O)[C@H](CC(=O)O)NC(=O)[C@H](CC(C)C)NC(=O)[C@@H](NC(=O)[C@@H]1CCCN1C(C)=O)C(C)C)C(=O)N[C@@H](CC(C)C)C(=O)N[C@@H](CCC(=O)O)C(=O)N[C@@H](C)C(=O)N[C@@H](CC(C)C)C(=O)N[C@@H](CCCCN)C(=O)N[C@@H](CCC(N)=O)C(=O)N[C@@H](CCCCN)C(=O)N[C@@H](CC(C)C)C(=O)N[C@@H](CCCCN)C(N)=O` [compound 9] (Ac-PVLDEFRE[dNle(6-ylidene)]LNE[dNle(6-ylidene)]LEALKQKLK-NH2; C-terminus assumed) has an EC50 of 46 µM.

Same assay, conditions: read-out: EC50 in the cholesterol efflux assay (RCT in vitro assay)

`CCCCCCC[C@H](NC(=O)[C@H](CCC(=O)O)NC(=O)[C@H](CC(N)=O)NC(=O)[C@H](CC(C)C)NC(=O)[C@H](CCCCN)NC(=O)[C@H](CCC(=O)O)NC(=O)[C@H](CCCNC(=N)N)NC(=O)[C@H](CCCCCCC)NC(=O)[C@H](CCC(=O)O)NC(=O)[C@H](CC(=O)O)NC(=O)[C@H](CC(C)C)NC(=O)[C@@H](NC(=O)[C@@H]1CCCN1C(C)=O)C(C)C)C(=O)N[C@@H](CC(C)C)C(=O)N[C@@H](CCC(=O)O)C(=O)N[C@@H](C)C(=O)N[C@@H](CC(C)C)C(=O)N[C@@H](CCCCN)C(=O)N[C@@H](CCC(N)=O)C(=O)N[C@@H](CCCCN)C(=O)N[C@@H](CC(C)C)C(=O)N[C@@H](CCCCN)C(N)=O` [SEQ ID NO 50, PVLDES7H3REKLNES7H3LEALKQKLK] (Ac-PVLDE[X6]REKLNE[X6]LEALKQKLK-NH2; C-terminus assumed) and `CCCCCCCCCCCCC(NC(=O)[C@H](CCC(=O)O)NC(=O)[C@H](CC(N)=O)NC(=O)[C@H](CC(C)C)NC(=O)[C@H](CCCCN)NC(=O)[C@H](CCC(=O)O)NC(=O)[C@H](CCCNC(=N)N)NC(=O)[C@H](Cc1ccccc1)NC(=O)[C@H](CCC(=O)O)NC(=O)[C@H](CC(=O)O)NC(=O)[C@H](CC(C)C)NC(=O)[C@@H](NC(=O)[C@@H]1CCCN1C(C)=O)C(C)C)C(=O)N[C@@H](CC(C)C)C(=O)N[C@@H](CCC(=O)O)C(=O)N[C@@H](C)C(=O)N[C@@H](CC(C)C)C(=O)N[C@@H](CCCCN)C(=O)N[C@@H](CCC(N)=O)C(=O)N[C@@H](CCCCN)C(=O)N[C@@H](CC(C)C)C(=O)N[C@@H](CCCCN)C(N)=O` (single isomer, unassigned) [SEQ ID NO 38, PVLDEFREKLNE-(RS)12H3-LEALKQKLK] cannot be ordered by EC50: 0.3 µM for the first, 0.2 to 0.4 µM for the second.

Compared with `C=CCCCC[C@@H](NC(=O)[C@H](CCC(=O)O)NC(=O)[C@H](CC(N)=O)NC(=O)[C@H](CC(C)C)NC(=O)[C@H](CCCCN)NC(=O)[C@H](CCC(=O)O)NC(=O)[C@H](CCCN=C(N)N)NC(=O)[C@H](Cc1ccccc1)NC(=O)[C@H](CCC(=O)O)NC(=O)[C@H](CC(=O)O)NC(=O)[C@H](CC(C)C)NC(=O)[C@@H](NC(=O)[C@@H]1CCCN1C(C)=O)C(C)C)C(=O)N[C@@H](CC(C)C)C(=O)N[C@@H](CCC(=O)O)C(=O)N[C@@H](C)C(=O)N[C@@H](CC(C)C)C(=O)N[C@@H](CCCCN)C(=O)N[C@@H](CCC(N)=O)C(=O)N[C@@H](CCCCN)C(=O)N[C@@H](CC(C)C)C(=O)N[C@@H](CCCCN)C(N)=O` [SEQ ID NO 18, PVLDEFREKLNER6HLEALKQKLK] (Ac-PVLDEFREKLNE[dNle(6-vinyl)]LEALKQKLK-NH2), `C=CCCCCC[C@@H](NC(=O)[C@H](CCC(=O)O)NC(=O)[C@H](CC(N)=O)NC(=O)[C@H](CC(C)C)NC(=O)[C@H](CCCCN)NC(=O)[C@H](CCC(=O)O)NC(=O)[C@H](CCCN=C(N)N)NC(=O)[C@H](Cc1ccccc1)NC(=O)[C@H](CCC(=O)O)NC(=O)[C@H](CC(=O)O)NC(=O)[C@H](CC(C)C)NC(=O)[C@@H](NC(=O)[C@@H]1CCCN1C(C)=O)C(C)C)C(=O)N[C@@H](CC(C)C)C(=O)N[C@@H](CCC(=O)O)C(=O)N[C@@H](C)C(=O)N[C@@H](CC(C)C)C(=O)N[C@@H](CCCCN)C(=O)N[C@@H](CCC(N)=O)C(=O)N[C@@H](CCCCN)C(=O)N[C@@H](CC(C)C)C(=O)N[C@@H](CCCCN)C(N)=O` [SEQ ID NO 21, PVLDEFREKLNER7HLEALKQKLK] (Ac-PVLDEFREKLNE[dGly(6-heptenyl)]LEALKQKLK-NH2) is 2.5-fold lower in EC50: 18 µM for the first, 7.2 µM for the second. The second is the more potent here.

First: CCCCCCCC[C@H](NC(=O)[C@H](CCC(=O)O)NC(=O)[C@H](CC(N)=O)NC(=O)[C@H](CC(C)C)NC(=O)[C@H](CCCCN)NC(=O)[C@H](CCC(=O)O)NC(=O)[C@H](CCCN=C(N)N)NC(=O)[C@H](Cc1ccccc1)NC(=O)[C@H](CCC(=O)O)NC(=O)[C@H](CC(=O)O)NC(=O)[C@H](CC(C)C)NC(=O)[C@@H](NC(=O)[C@@H]1CCCN1C(C)=O)C(C)C)C(=O)N[C@@H](CC(C)C)C(=O)N[C@@H](CCC(=O)O)C(=O)N[C@@H](C)C(=O)N[C@@H](CC(C)C)C(=O)N[C@@H](CCCCN)C(=O)N[C@@H](CCC(N)=O)C(=O)N[C@@H](CCCCN)C(=O)N[C@@H](CC(C)C)C(=O)N[C@@H](CCCCN)C(N)=O [SEQ ID NO 35, PVLDEFREKLNES8H3LEALKQKLK] (Ac-PVLDEFREKLNE[Gly(octyl)]LEALKQKLK-NH2)
Second: CCCCCCC[C@H](NC(=O)[C@H](CCC(=O)O)NC(=O)[C@H](CC(N)=O)NC(=O)[C@H](CC(C)C)NC(=O)[C@H](CCCCN)NC(=O)[C@H](CCC(=O)O)NC(=O)[C@H](CCCN=C(N)N)NC(=O)[C@H](Cc1ccccc1)NC(=O)[C@H](CCC(=O)O)NC(=O)[C@H](CC(=O)O)NC(=O)[C@H](CC(C)C)NC(=O)[C@@H](NC(=O)[C@@H]1CCCN1C(C)=O)C(C)C)C(=O)N[C@@H](CC(C)C)C(=O)N[C@@H](CCC(=O)O)C(=O)N[C@@H](C)C(=O)N[C@@H](CC(C)C)C(=O)N[C@@H](CCCCN)C(=O)N[C@@H](CCC(N)=O)C(=O)N[C@@H](CCCCN)C(=O)N[C@@H](CC(C)C)C(=O)N[C@@H](CCCCN)C(N)=O [SEQ ID NO 34, PVLDEFREKLNES7H3LEALKQKLK] (Ac-PVLDEFREKLNE[X6]LEALKQKLK-NH2)
The EC50 of the first is 2-fold lower: 0.3 µM for the first, 0.6 µM for the second.

`CC(=O)N1CCC[C@H]1C(=O)N[C@H](C(=O)N[C@@H](CC(C)C)C(=O)N[C@@H](CC(=O)O)C(=O)N[C@@H](CCC(=O)O)C(=O)N[C@@H](Cc1ccccc1)C(=O)N[C@@H](CCCNC(=N)N)C(=O)N[C@@H](CCC(=O)O)C(=O)N[C@@H](CCCCN)C(=O)N[C@@H](CC(C)C)C(=O)N[C@@H](CC(N)=O)C(=O)N[C@@H](CCC(=O)O)C(=O)NC(C)(C)C(=O)N[C@@H](CC(C)C)C(=O)N[C@@H](CC(C(=O)O)C(=O)O)C(=O)N[C@@H](C)C(=O)N[C@@H](CC(C)C)C(=O)N[C@@H](CCCCN)C(=O)N[C@@H](CCC(N)=O)C(=O)N[C@@H](CCCCN)C(=O)N[C@@H](CC(C)C)C(=O)N[C@@H](CCCCN)C(N)=O)C(C)C` [SEQ ID NO 4, PVLDEFREKLNEAIBLGLAALKQKLK] (Ac-PVLDEFREKLNE[Aib]L[Gla]ALKQKLK-NH2; C-terminus assumed) showed an EC50 of 41 µM.
